Values of other authors, collected in US10563162B2, “Microbial electro-photosynthesis” (Arizona Board of Regents on behalf of Arizona State …, priority 2014, dated 2020).

Settings: listed property of redox mediator / natural electron acceptor; no method given

midpoint potential (E^0,) [mV]	number of electrons transported (# e−)	Compound
11	2	CN(C)c1ccc2nc3ccc(=[N+](C)C)cc-3sc2c1 [Methylene Blue]
80	2	CC(C)=CCC/C(C)=C/CC/C(C)=C/CC/C(C)=C/CC/C(C)=C/CC/C(C)=C/CC/C(C)=C/CC/C(C)=C/CC/C(C)=C/CC1=CC(=O)C(C)=C(C)C1=O [Plastoquinone]
64	2	Thionine

Compound	midpoint potential (E^0,) [mV]	number of electrons transported (# e−)
O=C1C=CC(=O)C=C1 [Benzoquinone]	280	2
CC1=C(C)C(=O)C(C)=C(C)C1=O [Duroquinone]	5	2
